{"source": "patent US5961482A", "about": "“Iontotherapeutic device and process and iontotherapeutic unit dose” (Rutgers, The State University Of New Jersey, priority 1996, dated 1999)", "key": {"[1]": {"details": "for Tlag: printed beside pH 4.0 value"}, "[2]": {"details": "for Cumulative Amount of Drug Absorbed: donor 6.2 mg/ml pH 9.0, 37° C."}, "[3]": {"system": "blood glucose level (B.G.L.) in the diabetic hairless rats", "test": "Reduction in blood glucose level in diabetic hairless rats", "type": "in vivo", "experimental": "An aqueous solution of insulin at a concentration of 250 IU/ml is prepared by dissolving 193.8 mg (25.8 IU/mg) of pure porcine insulin in 20 ml of citrate buffer at pH 3.6. Two ml of the insulin solution so prepared is filled into a refillable dosage unit having a microporous membrane as the drug-releasing surface. This insulin-containing reservoir-type dosage unit is then assembled as a part of the pharmaceutical reservoir electrode of the iontotherapeutic device and applied successively on the abdominal skin of 9 diabetic hairless rats with the transdermal periodic iontotherapeutic system operating at 1 mA with square waveform mode to study the effect of frequency, on/off ratio and treatment duration on the reduction of blood glucose level. The results are shown and compared, respectively, in FIGS. 16, 17 and 18.\nThe same insulin solution is prepared in the same way as in Example 1, except that a phosphate buffer at pH 7.1 is used to replace the double-distilled water. Two ml of the insulin solution so prepared is filled into a refillable dosage unit having a microporous membrane as the drug-releasing surface. This unit dose is applied to 3 diabetic hairless rats following the same operation procedures as in Example 3 to study the effect of treatment duration on the reduction of blood glucose level.\n(§1) An aqueous buffer solution of insulin (250 IU/ml) is prepared in citrate-phosphate buffer at pH 3.68. An aliquot of 2.5 ml of this insulin solution is filled into the refillable dosage unit having a microporous membrane as the drug-releasing surface. The dosage unit is then assembled as a part of the pharmaceutical reservoir electrode of the iontotherapeutic device and membrane surface thereof is applied to the skin at abdominal region of 3 groups of anaesthetized, diabetic hairless rats. Blood samples are withdrawn at regular time intervals and glucose levels are measured by glucose analyzer. The reduction in glucose level from hyperglycemic state is the pharmacodynamic responses to the insulin absorbed transdermally.\nas §1, with “5” for “3 groups of”"}, "[4]": {"system": "blood glucose level (B.G.L.) in diabetic rabbits", "test": "Reduction of blood glucose levels in diabetic rabbits by glucose analyzer", "type": "in vivo", "experimental": "(§2) An aqueous solution of insulin (500 IU/ml) at pH 7.10 is used. An aliquot of 2.5 ml of this insulin solution is filled into the refillable dosage unit having a microporous membrane as the drug-releasing surface. The dosage unit is then assembled as a part of the pharmaceutical reservoir electrode of the iontotherapeutic device and membrane surface thereof is applied to the skin at dorsal region of 3 diabetic rabbits. Blood samples are withdrawn at regular time intervals and analyzed for immunoreactive insulin concentration by radioimmunoassay and for glucose levels by glucose analyzer. The reduction in glucose level from hyperglycemic state is the pharmacodynamic responses to the insulin transdermally absorbed.\n(§3) An aqueous solution of insulin (500 IU/ml) at pH 7.10 is used. An aliquot of 2.5 ml of this insulin solution is filled into the refillable dosage unit having a microporous membrane as the drug-releasing surface. The dosage unit is then assembled as a part of the pharmaceutical reservoir electrode of the iontotherapeutic device and membrane surface thereof is applied to the abdominal skin of 2 groups of diabetic rabbits. Blood samples are withdrawn at regular time intervals and analyzed for immunoreactive insulin concentration by radioimmunoassay and for glucose levels by glucose analyzer. The reduction in glucose level from hyperglycemic state is the pharmacodynamic responses to the insulin transdermally absorbed."}, "[5]": {"test": "Plasma immunoreactive insulin concentration in diabetic rabbits by radioimmunoassay", "type": "in vivo", "details": "TPIS 1 mA, 500 IU/ml pH 7.10", "experimental": "as §2\nas §3, with “The reduction in glucose level from hyperglycemic state is the pharmacodynamic responses to the insulin transdermally absorbed.” left out"}, "[6]": {"test": "In vitro skin permeation of insulin, Valia-Chien cell, I^125-insulin scintillation counting", "type": "in vitro ADME, hairless rat", "details": "for Skin Permeation Rate: 5.3 IU/ml, pH 7.1", "experimental": "(§4) An aqueous solution of insulin (5.3 IU/ml containing 0.3 mcCi of I^125 -insulin) is prepared and adjusted to pH 7.1 using NaOH. An aliquot of 3.5 ml of this insulin solution is filled into the refillable dosage unit having a microporous membrane as the drug-releasing surface. The dosage unit is then assembled as a part of the pharmaceutical reservoir electrode of the iontotherapeutic device and membrane surface thereof is applied to the stratum corneum side of hairless rat skin mounted in the Valia-Chien skin permeation cell at 37° C. Samples are withdrawn at regular time intervals and radioactivity is measured by scintillation counter to determine the amount of insulin which has been transdermally absorbed.\nas §4, with “pH 3.7, 5.2 or” for “pH”, “either HCl or NaOH solution.” for “NaOH.”, “radio-activity” for “radioactivity”"}}, "note": "Counter-ions that a name gives are not always drawn. Like-named read-outs stand apart in the source and are kept apart here.", "data": [{"molecule": "COc1ccc2c3c1O[C@H]1C(=O)CC[C@H]4[C@@H](C2)N(C)CC[C@]314", "note": "[Hydrocodone, hydrocodone]", "values": [{"measurement": "Skin Permeation Rate", "setting": "[1]; Control, pH 4.0", "result": 3.10, "unit": "mcg/cm^2 /hr"}, {"measurement": "Skin Permeation Rate", "setting": "[1]; Control, pH 7.5, ± S.D.", "result": "4.75 ± 1.70", "unit": "mcg/cm^2 /hr"}, {"measurement": "Tlag", "setting": "[1]; Control", "result": 5.17, "unit": "h"}, {"measurement": "Skin Permeation Rate", "setting": "[1]; DC mode, 1 mA, 2 min hourly for 12 hours, pH 4.0", "result": 37.5, "unit": "mcg/cm^2 /hr"}, {"measurement": "Skin Permeation Rate", "setting": "[1]; DC mode, 1 mA, 2 min hourly for 12 hours, pH 7.5, ± S.D.", "result": "7.61 ± 2.74", "unit": "mcg/cm^2 /hr"}, {"measurement": "Tlag", "setting": "[1]; DC mode, 1 mA, 2 min hourly", "result": 0.72, "unit": "h"}, {"measurement": "Tlag", "setting": "[1]; periodic wave mode, 2000 Hz, on/off 1/1, 1 mA", "result": 0.90, "unit": "h"}, {"measurement": "Skin Permeation Rate", "setting": "[1]; periodic wave mode, square wave, 2000 Hz, on/off 1/1, 1 mA, 2 min hourly, pH 4.0", "result": 59.4, "unit": "mcg/cm^2 /hr"}, {"measurement": "Skin Permeation Rate", "setting": "[1]; periodic wave mode, square wave, 2000 Hz, on/off 1/1, 1 mA, 2 min hourly, pH 7.5, ± S.D.", "result": "7.01 ± 1.16", "unit": "mcg/cm^2 /hr"}]}, {"molecule": "COc1ccc2c(c1)c(CC(=O)O)c(C)n2C(=O)c1ccc(Cl)cc1", "note": "[Indomethacin, indomethacin]", "values": [{"measurement": "Skin Permeation Rate", "setting": "[2]; No TPIS, pH 5.5", "result": 1.47, "unit": "mcg/cm^2 /hr"}, {"measurement": "Skin Permeation Rate", "setting": "[2]; With TPIS (1.2 mA, 5 min/hr for 7 hours, 2000 Hz, square, on/off 2/1), pH 2.5", "result": 0.76, "unit": "mcg/cm^2 /hr"}, {"measurement": "Skin Permeation Rate", "setting": "[2]; With TPIS (1.2 mA, 5 min/hr for 7 hours, 2000 Hz, square, on/off 2/1), pH 4.5", "result": 0.44, "unit": "mcg/cm^2 /hr"}, {"measurement": "Skin Permeation Rate", "setting": "[2]; With TPIS (1.2 mA, 5 min/hr for 7 hours, 2000 Hz, square, on/off 2/1), pH 5.5", "result": 6.30, "unit": "mcg/cm^2 /hr"}]}, {"molecule": "CN(C)[C@@H]1C(=O)C(C(N)=O)=C(O)[C@@]2(O)C(=O)C3=C(O)c4c(O)cccc4[C@@](C)(O)[C@H]3C[C@@H]12", "note": "[Tetracycline HCl, tetracycline HCl]", "values": [{"measurement": "Cumulative Amount of Drug Absorbed", "setting": "[2]; No TPIS, 1.25 hrs", "result": 0.0180, "unit": "mcg/cm^2"}, {"measurement": "Cumulative Amount of Drug Absorbed", "setting": "[2]; No TPIS, 2.25 hrs", "result": 0.0550, "unit": "mcg/cm^2"}, {"measurement": "Cumulative Amount of Drug Absorbed", "setting": "[2]; No TPIS, 3.25 hrs", "result": 0.0650, "unit": "mcg/cm^2"}, {"measurement": "Cumulative Amount of Drug Absorbed", "setting": "[2]; No TPIS, 4.25 hrs", "result": 0.1450, "unit": "mcg/cm^2"}, {"measurement": "Cumulative Amount of Drug Absorbed", "setting": "[2]; No TPIS, 5.25 hrs", "result": 0.3040, "unit": "mcg/cm^2"}, {"measurement": "Cumulative Amount of Drug Absorbed", "setting": "[2]; With TPIS (1 mA, 10 min/hr, 2000 Hz, square, on/off 4/1), 1.25 hrs", "result": 0.1765, "unit": "mcg/cm^2"}, {"measurement": "Cumulative Amount of Drug Absorbed", "setting": "[2]; With TPIS (1 mA, 10 min/hr, 2000 Hz, square, on/off 4/1), 2.25 hrs", "result": 0.2555, "unit": "mcg/cm^2"}, {"measurement": "Cumulative Amount of Drug Absorbed", "setting": "[2]; With TPIS (1 mA, 10 min/hr, 2000 Hz, square, on/off 4/1), 3.25 hrs", "result": 0.7815, "unit": "mcg/cm^2"}, {"measurement": "Cumulative Amount of Drug Absorbed", "setting": "[2]; With TPIS (1 mA, 10 min/hr, 2000 Hz, square, on/off 4/1), 4.25 hrs", "result": 1.3235, "unit": "mcg/cm^2"}, {"measurement": "Cumulative Amount of Drug Absorbed", "setting": "[2]; With TPIS (1 mA, 10 min/hr, 2000 Hz, square, on/off 4/1), 5.25 hrs", "result": 3.5600, "unit": "mcg/cm^2"}]}, {"molecule": "insulin", "values": [{"measurement": "blood glucose levels", "setting": "[3]; TPIS 1 mA, 2 KHz, on/off 1/1, 40 min, 250 IU/ml pH 3.68, waveforms compared", "result": "reduced substantially"}, {"measurement": "blood glucose levels, Day 1", "setting": "[3]; TPIS 1 mA, 2 KHz, square, on/off 1/1, 40 min, 250 IU/ml pH 3.68, Day 1", "result": "reduced substantially"}, {"measurement": "reduction of blood glucose level, effect of treatment duration", "setting": "[3]; TPIS 1 mA, on/off 1/1, 1000 Hz, pH 7.1", "result": "difference in the rate and the duration, but with equal effectiveness"}, {"measurement": "reduction of blood glucose level, effect of treatment duration 20-40 minutes", "setting": "[3]; TPIS 1 mA, on/off 8/1, 2000 Hz, pH 3.6", "result": "equally effective"}, {"measurement": "reduction of blood glucose level, 2000 Hz vs 1000 Hz", "setting": "[3]; TPIS 1 mA, square waveform, frequency of 2000 Hz vs 1000 Hz, pH 3.6", "result": "greater magnitude and a longer duration of reduction"}, {"measurement": "blood glucose, Day 3", "setting": "[3]; TPIS on Day 3 with no insulin in electrode, after insulin delivered on Day 1 (skin depot)", "result": "also reduced"}, {"measurement": "reduction of blood glucose level by TIDD", "setting": "[4]; TIDD (4× current, 2× administration time), pH 7.10", "result": "lower than the normoglycemic level"}, {"measurement": "blood glucose levels", "setting": "[4]; TPIS 1 mA, 2 KHz, on/off 1/1, square, 40 min, 500 IU/ml pH 7.10, dorsal skin", "result": "reduced substantially"}, {"measurement": "blood glucose levels, TPIS vs TIDD", "setting": "[4]; TPIS 1 mA, 40 min vs TIDD 4 mA, 80 min, 500 IU/ml pH 7.10, abdominal skin", "result": "reduced more instantaneously"}, {"measurement": "reduction of blood glucose level by TPIS", "setting": "[4]; TPIS, from hyperglycemic level, pH 7.10", "result": "near instantaneous reduction"}, {"measurement": "blood glucose level control by TPIS vs SC", "setting": "[4]; TPIS, pH 7.1, compared with subcutaneous administration", "result": "controlled at a highly constant level"}, {"measurement": "plasma immunoreactive insulin concentration", "setting": "[5]; 2 KHz, on/off 1/1, square, 40 min, dorsal skin", "result": "increases rapidly"}, {"measurement": "plasma immunoreactive insulin concentration, TPIS vs TIDD", "setting": "[5]; 40 min vs TIDD 4 mA, 80 min, abdominal skin", "result": "increases more rapidly"}, {"measurement": "Skin Permeation Rate", "setting": "[6]; TIDD 1 mA, 0 Hz, 5 min per 60 min for 7 hrs", "result": "37.5 (±4.5) mcIU/cm^2 /hr"}, {"measurement": "increase in TPIS-facilitated skin permeability, pH dependence", "setting": "[6]; lower pH solution (pH 3.7) vs pH 5.2 and 7.1", "result": "greater increase"}, {"measurement": "Skin Permeation Rate", "setting": "[6]; no iontotherapy, 48 hours", "result": "3.94±0.29", "unit": "mcIU/cm^2 /hr"}]}]}
